Measured values as given in ChEMBL document CHEMBL1201862, “PubChem BioAssay data set” (2004).
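48-hour exposure; five concentrations; linearly interpolated endpoints. Here, GI50 denotes the concentration required for 50% inhibition of growth.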 Active and inactive are the calls of the source. No stated cut-off is given here; in the data, active = GI50 up to about 1.1 µM and inactive = higher.

Columns and labels:
Assay in all cases: NCI tumour cell line growth inhibition, 48 h
A549 = tested on: A549
ACHN = tested on: ACHN
BT-549 = tested on: BT-549
HCC 2998 = tested on: HCC 2998
HL-60 = tested on: HL-60
HOP-62 = tested on: HOP-62
Hs-578T = tested on: Hs-578T
MDA-MB-231 = tested on: MDA-MB-231
NCI-H226 = tested on: NCI-H226
NCI-H522 = tested on: NCI-H522
OVCAR-3 = tested on: OVCAR-3
OVCAR-4 = tested on: OVCAR-4
PC-3 = tested on: PC-3
RPMI-8226 = tested on: RPMI-8226
SK-MEL-28 = tested on: SK-MEL-28
SK-MEL-2 = tested on: SK-MEL-2
SK-MEL-5 = tested on: SK-MEL-5
SW-620 = tested on: SW-620
U-251 = tested on: U-251
HOP-92 = tested on: HOP-92

Compound | GI50 (A549) | GI50 (ACHN) | GI50 (BT-549) | GI50 (HCC 2998) | GI50 (HL-60) | GI50 (HOP-62) | GI50 (Hs-578T) | GI50 (MDA-MB-231) | GI50 (NCI-H226) | GI50 (NCI-H522) | GI50 (OVCAR-3) | GI50 (OVCAR-4) | GI50 (PC-3) | GI50 (RPMI-8226) | GI50 (SK-MEL-28) | GI50 (SK-MEL-2) | GI50 (SK-MEL-5) | GI50 (SW-620) | GI50 (U-251) | GI50 (HOP-92)
CN(C)CCn1c(=O)c2ccc(NCCCN(C)CCCNc3ccc4c(=O)n(CCN(C)C)c(=O)n5c6ccccc6c(=O)c3c45)c3c(=O)c4ccccc4n(c1=O)c23 | < 0.01 µM (active) | < 0.01 µM (active) | 0.117 µM (active) | < 0.0115 µM (active) | < 0.01 µM (active) | < 0.0161 µM (active) | 0.131 µM (active) | < 0.0405 µM (active) | < 0.01 µM (active) | < 0.01 µM (active) | 0.0778 µM (active) | < 0.01 µM (active) | < 0.01 µM (active) | < 0.01 µM (active) | 0.165 µM (active) | 0.107 µM (active) | < 0.0106 µM (active) | < 0.01 µM (active) | < 0.01 µM (active) | –
COc1cc(C2c3cc4c(cc3OC(Nc3ccccc3)C2C)OCO4)cc(OC)c1OC (stereo not given) | 1.11 µM (active) | 1.39 µM (inactive) | 4.36 µM (inactive) | 1.08 µM (active) | 0.275 µM (active) | 0.366 µM (active) | 0.479 µM (active) | 2.8 µM (inactive) | 1.13 µM (inactive) | 0.337 µM (active) | 0.323 µM (active) | 24.7 µM (inactive) | 0.468 µM (active) | 0.608 µM (active) | 1.61 µM (inactive) | 5.65 µM (inactive) | – | 0.473 µM (active) | 0.392 µM (active) | –
COc1ccc2oc(=N)c(C(=O)Nc3ccccn3)cc2c1 | > 100 µM (inactive) | 76 µM (inactive) | > 100 µM (inactive) | > 100 µM (inactive) | > 100 µM (inactive) | > 100 µM (inactive) | > 100 µM (inactive) | > 100 µM (inactive) | 60.3 µM (inactive) | – | > 100 µM (inactive) | > 100 µM (inactive) | > 100 µM (inactive) | > 100 µM (inactive) | > 100 µM (inactive) | 23.2 µM (inactive) | > 100 µM (inactive) | > 100 µM (inactive) | > 100 µM (inactive) | > 100 µM (inactive)
O=C1/C(=C\c2ccc(Br)cc2)CCCc2ccccc21 | 31.6 µM (inactive) | 16.9 µM (inactive) | 24 µM (inactive) | 14.7 µM (inactive) | 14.2 µM (inactive) | 46.5 µM (inactive) | 17.3 µM (inactive) | 18.5 µM (inactive) | 14.4 µM (inactive) | – | 20.8 µM (inactive) | 12.3 µM (inactive) | 20.3 µM (inactive) | 17.1 µM (inactive) | 18.9 µM (inactive) | 19.1 µM (inactive) | – | 16.9 µM (inactive) | 15 µM (inactive) | 19.1 µM (inactive)
C=C(C)c1cc(C(C)(C)C)cc(C(=C)C)c1S(C)(=O)=O | > 100 µM (inactive) | > 100 µM (inactive) | > 100 µM (inactive) | > 100 µM (inactive) | > 100 µM (inactive) | > 100 µM (inactive) | > 100 µM (inactive) | 3.91 µM (inactive) | > 100 µM (inactive) | > 100 µM (inactive) | > 100 µM (inactive) | > 100 µM (inactive) | > 100 µM (inactive) | > 100 µM (inactive) | > 100 µM (inactive) | > 100 µM (inactive) | > 100 µM (inactive) | > 100 µM (inactive) | > 100 µM (inactive) | –
Cc1nc(Nc2ccc(F)cc2)c2sc(=S)n(-c3ccc(F)cc3)c2n1 | 16 µM (inactive) | 13.7 µM (inactive) | 13.3 µM (inactive) | 12.2 µM (inactive) | 23.6 µM (inactive) | 11.8 µM (inactive) | 14.5 µM (inactive) | 13.9 µM (inactive) | 16.1 µM (inactive) | 16.1 µM (inactive) | 17.1 µM (inactive) | 15.5 µM (inactive) | 20.1 µM (inactive) | 5.01 µM (inactive) | 14.7 µM (inactive) | 15.3 µM (inactive) | 14.6 µM (inactive) | 9.77 µM (inactive) | 14.7 µM (inactive) | –
CC(C)(C)C(=O)c1c(O)c2ccccc2c2ccccc2c1=O | > 100 µM (inactive) | > 100 µM (inactive) | 32.4 µM (inactive) | – | > 100 µM (inactive) | 82.2 µM (inactive) | 85.7 µM (inactive) | > 100 µM (inactive) | 49.4 µM (inactive) | 23.7 µM (inactive) | 59.2 µM (inactive) | 62.1 µM (inactive) | > 100 µM (inactive) | – | 58.7 µM (inactive) | > 100 µM (inactive) | > 100 µM (inactive) | > 100 µM (inactive) | 33.3 µM (inactive) | 32.4 µM (inactive)
CCOC(=O)Cc1[nH]c(C(=O)c2ccccc2)cc1C(=O)c1ccccc1 | 25.4 µM (inactive) | > 10 µM (inactive) | 20.6 µM (inactive) | 50.4 µM (inactive) | 33.1 µM (inactive) | 23.8 µM (inactive) | > 100 µM (inactive) | > 10 µM (inactive) | 23.3 µM (inactive) | 52.5 µM (inactive) | 46.3 µM (inactive) | 18.3 µM (inactive) | > 10 µM (inactive) | > 10 µM (inactive) | > 10 µM (inactive) | 39 µM (inactive) | 41.8 µM (inactive) | > 100 µM (inactive) | > 100 µM (inactive) | –
CCCCCCC(=O)O[C@H]1CC[C@H]2[C@@H]3CCC4C/C(=N/NC(=O)c5cccc6c(=O)c7ccccc7[nH]c56)C=C(C)[C@]4(C)[C@H]3CC[C@]12C (stereo not given in full) | > 25 µM (inactive) | > 25 µM (inactive) | > 25 µM (inactive) | > 25 µM (inactive) | > 25 µM (inactive) | > 25 µM (inactive) | > 25 µM (inactive) | > 25 µM (inactive) | > 25 µM (inactive) | – | > 25 µM (inactive) | > 25 µM (inactive) | > 25 µM (inactive) | > 25 µM (inactive) | – | > 25 µM (inactive) | > 25 µM (inactive) | > 25 µM (inactive) | > 25 µM (inactive) | > 25 µM (inactive)
CC(NNC(=O)c1ccncc1)c1ccccc1 (stereo not given) | > 100 µM (inactive) | > 100 µM (inactive) | > 100 µM (inactive) | > 100 µM (inactive) | > 100 µM (inactive) | > 100 µM (inactive) | > 100 µM (inactive) | > 100 µM (inactive) | > 100 µM (inactive) | – | > 100 µM (inactive) | > 100 µM (inactive) | > 100 µM (inactive) | > 100 µM (inactive) | > 100 µM (inactive) | > 100 µM (inactive) | > 100 µM (inactive) | > 100 µM (inactive) | > 100 µM (inactive) | > 100 µM (inactive)
COC1=C(OC)C(=O)C(Cc2c(-c3ccccc3)nc3sc(Cl)cn23)=C(C)C1=O | 21.7 µM (inactive) | 16 µM (inactive) | 15.7 µM (inactive) | 24.4 µM (inactive) | 7.91 µM (inactive) | 19.5 µM (inactive) | 18.1 µM (inactive) | 11 µM (inactive) | – | 13.6 µM (inactive) | 16.3 µM (inactive) | 3.61 µM (inactive) | 16.6 µM (inactive) | 13.5 µM (inactive) | 13.8 µM (inactive) | 15.6 µM (inactive) | 15.2 µM (inactive) | 23.3 µM (inactive) | 18.5 µM (inactive) | –
Cc1cc(O)nc(NN2C(Cl)C(=O)C2c2ccc(Cl)cc2)n1 (stereo not given) | 26.3 µM (inactive) | 23 µM (inactive) | 20.5 µM (inactive) | 17 µM (inactive) | 3.18 µM (inactive) | 19.6 µM (inactive) | 30 µM (inactive) | 26.4 µM (inactive) | 11.9 µM (inactive) | – | 13.6 µM (inactive) | 22.9 µM (inactive) | 32.7 µM (inactive) | 8.55 µM (inactive) | 18.2 µM (inactive) | 19.3 µM (inactive) | 12.8 µM (inactive) | 22.5 µM (inactive) | 20.5 µM (inactive) | 12.9 µM (inactive)
COc1cccc(/C=N/n2c(Cc3ccccc3)n[nH]c2=O)c1 | > 100 µM (inactive) | > 100 µM (inactive) | > 100 µM (inactive) | > 100 µM (inactive) | – | 42.9 µM (inactive) | 26.7 µM (inactive) | > 100 µM (inactive) | – | 16.8 µM (inactive) | > 100 µM (inactive) | > 100 µM (inactive) | > 100 µM (inactive) | > 100 µM (inactive) | > 100 µM (inactive) | > 100 µM (inactive) | 33.9 µM (inactive) | > 100 µM (inactive) | > 100 µM (inactive) | –
C=CCOc1ccc(N)c([N+](=O)[O-])c1 | > 100 µM (inactive) | > 100 µM (inactive) | > 100 µM (inactive) | > 100 µM (inactive) | > 100 µM (inactive) | > 100 µM (inactive) | > 100 µM (inactive) | > 10 µM (inactive) | > 100 µM (inactive) | 63.4 µM (inactive) | – | – | > 100 µM (inactive) | > 100 µM (inactive) | > 100 µM (inactive) | > 100 µM (inactive) | > 100 µM (inactive) | > 100 µM (inactive) | > 100 µM (inactive) | –
COC(=O)c1cnc(Cl)cn1 | > 100 µM (inactive) | 71 µM (inactive) | 37 µM (inactive) | – | 32.7 µM (inactive) | > 100 µM (inactive) | 50.6 µM (inactive) | 71.8 µM (inactive) | 35.2 µM (inactive) | 2.49 µM (inactive) | – | 20.2 µM (inactive) | 13.6 µM (inactive) | 21 µM (inactive) | 53.3 µM (inactive) | 48 µM (inactive) | 59.2 µM (inactive) | 63.7 µM (inactive) | 34.9 µM (inactive) | 28.4 µM (inactive)
